Assay results published in ChEMBL document CHEMBL1240397, “Amodiaquine dosage and tolerability for intermittent preventive treatment to prevent malaria in children” (Antimicrob Agents Chemother, 2010).

Legend:
Assay type in all cases: organism-based
Details in all cases: in vivo, po
Homo sapiens [1] = test: Toxicity in children with malaria under 2 years of age assessed as incidence of vomiting administered with 250 mg sulfalene/12.5 mg pyrimethamine on first day followed by compound treatment at <=15 mg/kg/day, perorally
Homo sapiens [2] = test: Toxicity in children with malaria under 2 years of age assessed as incidence of fever administered with 250 mg sulfalene/12.5 mg pyrimethamine on first day followed by compound treatment at <=15 mg/kg/day, perorally
Homo sapiens [3] = test: Toxicity in children with malaria under 2 years of age assessed as incidence of rashes administered with 250 mg sulfalene/12.5 mg pyrimethamine on first day followed by compound treatment at <=15 mg/kg/day, perorally
Homo sapiens [4] = test: Toxicity in children with malaria under 2 years of age assessed as incidence of itching administered with 250 mg sulfalene/12.5 mg pyrimethamine on first day followed by compound treatment at <=15 mg/kg/day, perorally
Homo sapiens [5] = test: Toxicity in children with malaria under 2 years of age assessed as incidence of headache administered with 250 mg sulfalene/12.5 mg pyrimethamine on first day followed by compound treatment at <=15 mg/kg/day, perorally
Homo sapiens [6] = test: Toxicity in children with malaria over 2 years of age assessed as incidence of vomiting at >=15 mg/kg/day, perorally co-treated with 500 mg sulfalene/25 mg pyrimethamine
Homo sapiens [7] = test: Toxicity in children with malaria over 2 years of age assessed as incidence of fever at >=15 mg/kg/day, perorally co-treated with 500 mg sulfalene/25 mg pyrimethamine
Homo sapiens [8] = test: Toxicity in children with malaria over 2 years of age assessed as incidence of rashes at >=15 mg/kg/day, perorally co-treated with 500 mg sulfalene/25 mg pyrimethamine
Homo sapiens [9] = test: Toxicity in children with malaria over 2 years of age assessed as incidence of itching at >=15 mg/kg/day, perorally co-treated with 500 mg sulfalene/25 mg pyrimethamine
Homo sapiens [10] = test: Toxicity in children with malaria over 2 years of age assessed as incidence of headache at >=15 mg/kg/day, perorally co-treated with 500 mg sulfalene/25 mg pyrimethamine
Homo sapiens [11] = test: Toxicity in children with malaria assessed as incidence of vomiting at <15 mg/kg/day, perorally and co-treated with sulfadoxine and pyrimethamine during intermittent preventive treatment to prevent malaria in children regimen
Homo sapiens [12] = test: Toxicity in children with malaria assessed as febrile incidence at <15 mg/kg/day, perorally and co-treated with sulfadoxine and pyrimethamine during intermittent preventive treatment to prevent malaria in children regimen
Homo sapiens [13] = test: Toxicity in children with malaria assessed as incidence of rashes at <15 mg/kg/day, perorally and co-treated with sulfadoxine and pyrimethamine during intermittent preventive treatment to prevent malaria in children regimen
Homo sapiens [14] = test: Toxicity in children with malaria assessed as incidence of vomiting at 15-17 mg/kg/day, perorally and cotreated with Sulfadoxine and pyrimethamine during intermittent preventive treatment to prevent malaria in children regimen
Homo sapiens [15] = test: Toxicity in children with malaria assessed as febrile incidence at 15-17 mg/kg/day, perorally and co-treated with sulfadoxine and pyrimethamine during intermittent preventive treatment to prevent malaria in children regimen
Homo sapiens [16] = test: Toxicity in children with malaria assessed as incidence of rashes at 15-17 mg/kg/day, perorally and co-treated with sulfadoxine and pyrimethamine during intermittent preventive treatment to prevent malaria in children regimen
Homo sapiens [17] = test: Toxicity in children with malaria assessed as febrile incidence at 17-19 mg/kg/day, perorally and cotreated with Sulfadoxine and pyrimethamine during intermittent preventive treatment to prevent malaria in children regimen
Homo sapiens [18] = test: Toxicity in children with malaria assessed as incidence of rashes at 17-19 mg/kg/day, perorally and cotreated with Sulfadoxine and pyrimethamine during intermittent preventive treatment to prevent malaria in children regimen
Homo sapiens [19] = test: Toxicity in children with malaria assessed as febrile incidence at >19 mg/kg/day, perorally and co-treated with sulfadoxine and pyrimethamine during intermittent preventive treatment to prevent malaria in children regimen
Homo sapiens [20] = test: Toxicity in children with malaria assessed as incidence of rashes at >19 mg/kg/day, perorally and co-treated with sulfadoxine and pyrimethamine during intermittent preventive treatment to prevent malaria in children regimen

CCN(CC)Cc1cc(Nc2ccnc3cc(Cl)ccc23)ccc1O.Cl
Activity (Homo sapiens [1]): 26.4%
Activity (Homo sapiens [2]): 26.4%
Activity (Homo sapiens [3]): 1.9%
Activity (Homo sapiens [4]): 1.9%
Activity (Homo sapiens [5]): 9.6%
Activity (Homo sapiens [6]): 41.3%
Activity (Homo sapiens [7]): 29.8%
Activity (Homo sapiens [8]): 1.9%
Activity (Homo sapiens [9]): 3.8%
Activity (Homo sapiens [10]): 5.8%
Activity (Homo sapiens [11]): 7%
Activity (Homo sapiens [12]): 6.3%
Activity (Homo sapiens [13]): 0.8%
Activity (Homo sapiens [14]): 9.2%
Activity (Homo sapiens [15]): 10.7%
Activity (Homo sapiens [16]): 0%
Activity (Homo sapiens [17]): 9.9%
Activity (Homo sapiens [18]): 0.8%
Activity (Homo sapiens [19]): 21.7%
Activity (Homo sapiens [20]): 2.2%
